Experimental data reported in ChEMBL document CHEMBL6103662, “Thiosulfonate-Based Targeted Covalent Cruzipain Inhibitors with Enhanced Bioactivity Translation for Antichagasic Therapy” (ACS Med Chem Lett, 2025).
Calls of active or inactive are those of the source. No cut-off for these calls is given here.

How the values were obtained:
[1] = biological target: Cruzipain (Trypanosoma cruzi) (UniProt P25779); assay: Inhibition of recombinant Trypanosoma cruzi Cruzain at 100 uM using Z-FR-AMC as substrate preincubated for 10 mins followed by substrate addition and measured at 5 secs interval for 10 mins by fluorimetry relative to control; details: time 20.0 min
Cruzipain = Cruzipain (Trypanosoma cruzi, UniProt P25779); assay: Inhibition of recombinant Trypanosoma cruzi Cruzain using Z-FR-AMC as substrate preincubated for 10 mins followed by substrate addition and measured at 5 secs interval for 10 mins by fluorimetry
Trypanosoma cruzi [2] = assay: Antitrypanosomal activity against Trypanosoma cruzi Tulahuen trypomastigotes expressing Escherichia coli beta-galactosidase infected in Vero cells at 50 uM measured after 72 hrs by beta-galactosidase based assay relative to control; type: functional
[3] = Cytotoxicity against African green monkey Vero cells assessed as cell viability at 50 uM measured after 96 hrs by Alamar blue assay relative to control; type: toxicity, cell-based; details: chlorocebus sabaeus, read-out: Activity
Trypanosoma cruzi [4] = assay: Antitrypanosomal activity against Trypanosoma cruzi Tulahuen trypomastigotes expressing Escherichia coli beta-galactosidase infected in Vero cells at 1 uM measured after 72 hrs by beta-galactosidase based assay relative to control; type: functional
cathepsin L = cathepsin L (Homo sapiens, UniProt P07711); assay: Inhibition of recombinant human cathepsin L at 100 uM using Z-FR-AMC as substrate preincubated for 10 mins followed by substrate addition and measured for 20 mins by fluorimetry relative to control; details: probe Z-FR-AMC, time 30 min
Trypanosoma cruzi [5] = assay: Antitrypanosomal activity against Trypanosoma cruzi Tulahuen trypomastigotes expressing Escherichia coli beta-galactosidase infected in Vero cells at 10 uM measured after 72 hrs by beta-galactosidase based assay relative to control; type: functional
[6] = biological target: Cruzipain (Trypanosoma cruzi) (UniProt P25779); assay: Reversible inhibition of recombinant Trypanosoma cruzi Cruzain assessed as recovery of enzyme activity at 10 x IC50 using Z-FR-AMC as substrate preincubated for 30 mins followed by 100-fold dilution with assay buffer containing substrate and measured after 15 to 120 mins by fluorescence based jump dilution assay; details: time 150.0 min
Trypanosoma cruzi [7] = assay: Antitrypanosomal activity against Trypanosoma cruzi Tulahuen trypomastigotes expressing Escherichia coli beta-galactosidase infected in Vero cells measured after 72 hrs by beta-galactosidase based assay; type: functional, organism-based
[8] = biological target: Cruzipain (Trypanosoma cruzi) (UniProt P25779); assay: Inhibition of recombinant Trypanosoma cruzi Cruzain at 100 uM using Z-FR-AMC as substrate measured at 5 secs interval for 10 mins by fluorimetry relative to control
Trypanosoma cruzi [9] = assay: Trypanocidal activity against Trypanosoma cruzi; type: functional, organism-based
[10] = biological target: Cruzipain (Trypanosoma cruzi) (UniProt P25779); assay: Inhibition of recombinant Trypanosoma cruzi Cruzain at 10 x IC50 using Z-FR-AMC as substrate preincubated for 30 mins followed by 100-fold dilution with assay buffer containing substrate and measured up to 15 mins by fluorescence based jump dilution assay; details: time 45.0 min

Chain of Cruzipain (Trypanosoma cruzi) (P25779 123-467 limits assumed): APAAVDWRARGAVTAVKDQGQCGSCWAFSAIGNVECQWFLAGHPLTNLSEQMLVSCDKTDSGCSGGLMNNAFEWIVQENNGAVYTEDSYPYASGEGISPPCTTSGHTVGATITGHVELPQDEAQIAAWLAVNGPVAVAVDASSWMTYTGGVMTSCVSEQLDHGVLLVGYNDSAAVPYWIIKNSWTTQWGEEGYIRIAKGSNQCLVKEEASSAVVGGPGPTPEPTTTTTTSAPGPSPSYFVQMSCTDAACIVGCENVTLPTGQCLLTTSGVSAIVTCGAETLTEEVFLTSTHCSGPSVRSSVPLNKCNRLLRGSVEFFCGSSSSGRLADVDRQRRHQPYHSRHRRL
Chain of cathepsin L (P07711 whole entry): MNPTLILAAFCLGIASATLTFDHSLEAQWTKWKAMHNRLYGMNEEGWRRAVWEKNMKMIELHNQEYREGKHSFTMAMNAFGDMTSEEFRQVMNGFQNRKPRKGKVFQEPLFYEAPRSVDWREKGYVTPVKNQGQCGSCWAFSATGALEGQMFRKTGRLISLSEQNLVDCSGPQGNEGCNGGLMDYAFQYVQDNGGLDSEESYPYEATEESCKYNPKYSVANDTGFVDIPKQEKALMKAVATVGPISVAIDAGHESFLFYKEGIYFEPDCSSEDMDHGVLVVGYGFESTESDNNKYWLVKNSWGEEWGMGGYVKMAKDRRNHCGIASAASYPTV
Chain of Cruzipain (P25779 whole entry): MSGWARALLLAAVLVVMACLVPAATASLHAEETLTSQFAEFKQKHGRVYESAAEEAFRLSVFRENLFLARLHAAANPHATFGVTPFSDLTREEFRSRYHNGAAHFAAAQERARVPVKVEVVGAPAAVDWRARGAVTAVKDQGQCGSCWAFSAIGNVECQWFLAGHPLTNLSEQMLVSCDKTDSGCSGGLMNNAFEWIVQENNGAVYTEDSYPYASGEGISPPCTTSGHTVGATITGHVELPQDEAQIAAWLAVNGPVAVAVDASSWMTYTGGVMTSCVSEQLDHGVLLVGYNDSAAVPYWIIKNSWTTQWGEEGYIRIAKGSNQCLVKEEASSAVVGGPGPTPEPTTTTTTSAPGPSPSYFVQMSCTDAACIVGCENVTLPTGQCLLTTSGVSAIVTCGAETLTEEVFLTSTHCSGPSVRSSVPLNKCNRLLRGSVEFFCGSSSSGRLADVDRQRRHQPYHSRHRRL

O=C[C@H](Cc1ccccc1)n1cc(C(NCc2ccc3c(c2)OCO3)C2CCCCC2)nn1 (stereo partly drawn)
inhibition [1]: 64% | IC50 (Cruzipain): 41 µM | inhibition at 50 µM (Trypanosoma cruzi [2]): 10%

CCOC(=O)[C@H](Cc1ccccc1)n1cc(C(NCc2ccc3c(c2)OCO3)C2CCCCC2)nn1 (stereo partly drawn)
inhibition [1]: 15%

COC(=O)[C@H](CSS(=O)(=O)c1ccccc1)n1cc(C(NCc2ccc3c(c2)OCO3)C2CCCC2)nn1 (stereo partly drawn)
viability at 96 h, 50 µM [3]: 53% | inhibition [1]: 90% | inhibition at 1 µM (Trypanosoma cruzi [4]): 2% | IC50 (Cruzipain): 9.7 µM | inhibition at 50 µM (Trypanosoma cruzi [2]): 98% | inhibition at 20 min, 100 µM (cathepsin L): 23% | inhibition at 10 µM (Trypanosoma cruzi [5]): 88%

CCCCC(c1cn([C@@H](CSS(=O)(=O)c2ccccc2)C(=O)OCC)nn1)N1CCc2ccccc2C1 (stereo partly drawn)
viability at 96 h, 50 µM [3]: 82% | inhibition [1]: 76% | IC50 (Cruzipain): 25 µM | inhibition at 50 µM (Trypanosoma cruzi [2]): 91.7% | inhibition at 20 min, 100 µM (cathepsin L): 0% | inhibition at 10 µM (Trypanosoma cruzi [5]): 31%

CC(C)[C@H](CSS(=O)(=O)c1ccccc1)n1cc(C(NCc2ccc3c(c2)OCO3)C2CCCCC2)nn1 (stereo partly drawn)
inhibition [6]: Active | IC50 (Trypanosoma cruzi [7]): 7.8 µM | inhibition [8]: 20% | viability at 96 h, 50 µM [3]: 75% | inhibition [1]: 73% | IC50 (Cruzipain): 4 µM | inhibition at 50 µM (Trypanosoma cruzi [2]): 100% | inhibition at 20 min, 100 µM (cathepsin L): 0% | inhibition at 10 µM (Trypanosoma cruzi [5]): 93%

CCOC(=O)[C@H](CSS(=O)(=O)c1ccccc1)n1cc(C(C2CCCCC2)N2CCc3ccccc3C2)nn1 (stereo partly drawn)
viability at 96 h, 50 µM [3]: 87% | inhibition [1]: 80% | inhibition at 1 µM (Trypanosoma cruzi [4]): 0% | IC50 (Cruzipain): 13.7 µM | inhibition at 50 µM (Trypanosoma cruzi [2]): 91% | inhibition at 20 min, 100 µM (cathepsin L): 8% | inhibition at 10 µM (Trypanosoma cruzi [5]): 77%

COc1ccc(COC(=O)[C@H](CSS(=O)(=O)c2ccccc2)n2cc(C(NCc3ccc4c(c3)OCO4)C3CCCCC3)nn2)cc1 (stereo partly drawn)
inhibition [8]: 7% | viability at 96 h, 50 µM [3]: 97% | inhibition [1]: 50% | inhibition at 50 µM (Trypanosoma cruzi [2]): 5% | inhibition at 20 min, 100 µM (cathepsin L): 16%

CCC(CC)C(NCc1ccc2c(c1)OCO2)c1cn([C@@H](CSS(=O)(=O)c2ccccc2)C(=O)O)nn1 (stereo partly drawn)
inhibition [1]: 33%

O=C(O)[C@H](CSS(=O)(=O)c1ccccc1)n1cc(C(NCc2ccc3c(c2)OCO3)C2CCCCC2)nn1 (stereo partly drawn)
inhibition [1]: 41%

O=C(Cn1ccnc1[N+](=O)[O-])NCc1ccccc1 [BENZNIDAZOLE]
IC50 (Trypanosoma cruzi [9]): 1.45 µM

CCCCC(NCc1ccc2c(c1)OCO2)c1cn([C@@H](CSS(=O)(=O)c2ccccc2)C(=O)OCC)nn1 (stereo partly drawn)
viability at 96 h, 50 µM [3]: 63% | inhibition [1]: 92% | inhibition at 1 µM (Trypanosoma cruzi [4]): 10.7% | IC50 (Cruzipain): 3.2 µM | inhibition at 50 µM (Trypanosoma cruzi [2]): 97% | inhibition at 20 min, 100 µM (cathepsin L): 84% | inhibition at 10 µM (Trypanosoma cruzi [5]): 83%

O=C(O)[C@H](CSS(=O)(=O)c1ccccc1)n1cc(C(C2CCCCC2)N2CCc3ccccc3C2)nn1 (stereo partly drawn)
inhibition [1]: 28%

CCOC(=O)[C@H](CSS(=O)(=O)c1ccccc1)n1cc(C(NCc2ccc3c(c2)OCO3)C2CCCCC2)nn1 (stereo partly drawn)
inhibition [6]: Active; Gradual Recovery Of Enzyme Activity Observed | inhibition [10]: Active; Showed Near-Zero Slope | inhibition [8]: 39% | viability at 96 h, 50 µM [3]: 87% | inhibition [1]: 92% | inhibition at 1 µM (Trypanosoma cruzi [4]): 14% | IC50 (Cruzipain): 2.7 µM | inhibition at 50 µM (Trypanosoma cruzi [2]): 100% | inhibition at 20 min, 100 µM (cathepsin L): 47% | inhibition at 10 µM (Trypanosoma cruzi [5]): 96%

O=S(=O)(SC[C@@H](Cc1ccccc1)n1cc(C(NCc2ccc3c(c2)OCO3)C2CCCCC2)nn1)c1ccccc1 (stereo partly drawn)
inhibition [6]: Active | IC50 (Trypanosoma cruzi [7]): 1.9 µM | inhibition [8]: 39% | viability at 96 h, 50 µM [3]: 100% | inhibition [1]: 86% | IC50 (Cruzipain): 2.2 µM | inhibition at 50 µM (Trypanosoma cruzi [2]): 99.9% | inhibition at 20 min, 100 µM (cathepsin L): 13% | inhibition at 10 µM (Trypanosoma cruzi [5]): 91%

COC(=O)[C@H](CSS(=O)(=O)c1ccccc1)n1cc(C(NCc2ccc3c(c2)OCO3)C2CCCCC2)nn1 (stereo partly drawn)
inhibition [8]: 55% | viability at 96 h, 50 µM [3]: 82% | inhibition [1]: 83% | inhibition at 1 µM (Trypanosoma cruzi [4]): 3% | IC50 (Cruzipain): 12 µM | inhibition at 50 µM (Trypanosoma cruzi [2]): 100% | inhibition at 20 min, 100 µM (cathepsin L): 55% | inhibition at 10 µM (Trypanosoma cruzi [5]): 90%

CCOC(=O)[C@H](CSS(=O)(=O)c1ccccc1)n1cc(C(NCc2ccc3c(c2)OCO3)C(CC)CC)nn1 (stereo partly drawn)
viability at 96 h, 50 µM [3]: 70% | inhibition [1]: 56% | inhibition at 1 µM (Trypanosoma cruzi [4]): 0% | IC50 (Cruzipain): 24 µM | inhibition at 50 µM (Trypanosoma cruzi [2]): 97% | inhibition at 20 min, 100 µM (cathepsin L): 2% | inhibition at 10 µM (Trypanosoma cruzi [5]): 91%
